Source: BindingDB's records for PubMed 1362243 (National Institute of Mental Health, 1992)
Positions of bridges follow the written chain, without caps; N, C: chain ends. Non-standard residues stand in square brackets, D forms with d. Residues, ends and D or L forms follow the SMILES beside them. *: point of attachment. X1 = CC(O)[C@H](CO)N*

Biological target: Somatostatin receptor type 4 (Rattus norvegicus, UniProt P30937)
Sequence (P30937 whole entry): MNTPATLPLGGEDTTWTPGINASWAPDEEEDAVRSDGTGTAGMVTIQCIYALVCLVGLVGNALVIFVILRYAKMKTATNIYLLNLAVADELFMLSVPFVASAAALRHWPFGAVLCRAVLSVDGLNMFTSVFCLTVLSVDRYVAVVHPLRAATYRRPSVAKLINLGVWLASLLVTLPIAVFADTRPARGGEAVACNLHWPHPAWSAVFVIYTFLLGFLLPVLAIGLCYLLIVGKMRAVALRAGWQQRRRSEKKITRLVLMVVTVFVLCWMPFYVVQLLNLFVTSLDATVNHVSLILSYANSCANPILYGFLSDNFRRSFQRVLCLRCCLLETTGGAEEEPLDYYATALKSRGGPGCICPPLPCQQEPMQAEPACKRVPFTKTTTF

Row | Compound | Ki [nM]
1 | CSCC[C@H](NC(=O)[C@H](C)NC(=O)[C@@H]1CCCN1C(=O)[C@H](CC(N)=O)NC(=O)[C@H](CO)NC(=O)[C@H](CC(N)=O)NC(=O)[C@H](C)NC(=O)[C@@H](N)CO)C(=O)N[C@@H](C)C(=O)N1CCC[C@H]1C(=O)N[C@@H](CCCNC(=N)N)C(=O)N[C@@H](CCC(=O)O)C(=O)N[C@@H](CCCNC(=N)N)C(=O)N[C@@H](CCCCN)C(=O)N[C@@H](C)C(=O)NCC(=O)N[C@H]1CSSC[C@@H](C(=O)O)NC(=O)[C@H](CO)NC(=O)[C@H]([C@@H](C)O)NC(=O)[C@H](Cc2ccccc2)NC(=O)[C@H]([C@@H](C)O)NC(=O)[C@H](CCCCN)NC(=O)[C@H](Cc2c[nH]c3ccccc23)NC(=O)[C@H](Cc2ccccc2)NC(=O)[C@H](Cc2ccccc2)NC(=O)[C@H](CC(N)=O)NC(=O)[C@H](CCCCN)NC1=O [somatostatin-28] | 0.08
2 | CC(O)[C@H](CO)NC(=O)[C@@H]1CSSC[C@H](NC(=O)[C@H](N)Cc2ccccc2)C(=O)N[C@@H](Cc2ccccc2)C(=O)N[C@H](Cc2c[nH]c3ccccc23)C(=O)N[C@@H](CCCCN)C(=O)N[C@@H]([C@@H](C)O)C(=O)N1 (some centres not stated) (H-[dF]CF[dW]KTC-X1; disulfide 2-7) | 0.18
